Source: patent US7192956B2, “Methods of treating hormone-related conditions using cyclothiocarbamate derivatives” (Wyeth, priority 2002, dated 2007)

Tests used:
androgen receptor (AR) [1] = molecular target: T1, androgen receptor (AR) (Mus musculus, UniProt P19091); assay: Anti-androgenic (AR antagonistic) activity, PRE-tk-luciferase reporter in L929 cells co-treated with DHT; format: cell-based; conditions: co-treated with 3 nM DHT
T1 construct: the L929 cells which express the AR but not the PR; endogenous in cells; host or cells: L929 cells
T1 sequence (P19091 1-899): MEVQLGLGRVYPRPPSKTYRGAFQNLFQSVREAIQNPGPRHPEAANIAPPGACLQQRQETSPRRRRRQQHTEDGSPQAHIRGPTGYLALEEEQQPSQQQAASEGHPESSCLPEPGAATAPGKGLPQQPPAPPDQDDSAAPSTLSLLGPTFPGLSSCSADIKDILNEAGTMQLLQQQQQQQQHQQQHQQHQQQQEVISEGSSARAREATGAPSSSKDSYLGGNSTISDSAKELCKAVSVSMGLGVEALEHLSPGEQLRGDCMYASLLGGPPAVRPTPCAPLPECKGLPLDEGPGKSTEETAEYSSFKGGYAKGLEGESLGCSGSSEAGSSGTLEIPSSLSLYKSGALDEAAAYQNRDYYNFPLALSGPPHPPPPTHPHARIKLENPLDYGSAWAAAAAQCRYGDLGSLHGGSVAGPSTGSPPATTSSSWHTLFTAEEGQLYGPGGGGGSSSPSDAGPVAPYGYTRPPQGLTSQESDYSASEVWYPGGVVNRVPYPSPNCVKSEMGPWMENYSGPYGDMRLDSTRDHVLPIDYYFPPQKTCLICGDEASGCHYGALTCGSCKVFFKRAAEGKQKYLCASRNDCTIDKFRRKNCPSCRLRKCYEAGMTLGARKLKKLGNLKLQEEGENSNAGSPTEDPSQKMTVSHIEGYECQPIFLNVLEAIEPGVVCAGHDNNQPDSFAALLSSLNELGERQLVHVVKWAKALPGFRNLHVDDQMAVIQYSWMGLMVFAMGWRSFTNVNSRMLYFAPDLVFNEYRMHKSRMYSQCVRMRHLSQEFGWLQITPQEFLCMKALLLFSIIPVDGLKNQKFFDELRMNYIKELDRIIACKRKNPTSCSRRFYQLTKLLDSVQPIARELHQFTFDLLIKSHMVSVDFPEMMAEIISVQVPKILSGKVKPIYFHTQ
Protocol: (§1) The androgen receptor (AR) agonistic and antagonistic activity of the compositions of the invention in the L929 cells which express the AR but not the PR was evaluated as described in Zhang et al., Steroids, 65(10–11): 637–643 (October–November 2000).
(§2) Cells were plated in 96-well plates at 25,000 cells/well in DMEM (Bio Whittaker) with 10% (v/v) fetal bovine serum (FBS). The next day, cells were infected with the adenovirus PRE-tk-luciferase reporter construct (2×10^9 pfu/ml particles) and kept in DMEM containing 10% charcoal stripped FBS for an additional 24 hours. […] To test the anti-androgenic activity, cells were co-treated with 3 nM DHT. Luciferase activity was measured 24 hours following the treatment.

androgen receptor (AR) [2] = molecular target: T1, androgen receptor (AR); assay: AR agonistic activity, PRE-tk-luciferase reporter in L929 cells; format: cell-based; conditions: at the maximum concentration tested (i.e., 10 nM)
Protocol: as §1, §2

**Q.** `Cn1c(C#N)ccc1-c1ccc2c(c1)C(C)(C)OC(=S)N2` [5-(4,4-dimethyl-2-thioxo-1,4-dihydro-2H-3,1-benzoxazin-6-yl)-1-methyl-1H-pyrrole-2-carbonitrile] was tested. Which IC50 (androgen receptor (AR) [1]; L929 cells expressing AR but not PR, PRE-tk-luciferase reporter, luciferase measured 24 hours after treatment) did it give?
**A.** 109 nM

**Q.** What about the antagonistic activity (androgen receptor (AR) [1]; L929 cells, nine point dose response) of the same compound?
**A.** significant antagonistic activity

**Q.** What about the agonistic activity (androgen receptor (AR) [2]) of the same compound?
**A.** only marginal agonistic activity
